According to US9777037B2, “Neurosteroid compounds” (BIONATURE E. A. LTD., priority 2007, dated 2017):
pKd: −log10 of the molar value.

How the values were obtained:
[1] = test system: Dopaminergic neural-crest derived PC12 cells; test: Dopamine secretion from dopaminergic PC12 cells (radioimmunoassay); format: cell-based, rat; conditions: 10^-7 M
Description: Dopaminergic neural-crest derived PC12 cells were grown in 6-well plates, coated with poly-L-lysine, at a concentration of 10^6 cells/well. Cells were incubated with neurosteroids or the vehicle for several time periods; for the short-term experiments the incubation time ranged from 5 to 30 minutes and for the long-term from 3 to 48 hours. 1 mL of supernatants were transferred to tubes containing 200 μl 0.1 M HCl for measurement of dopamine, which was measured by radioimmunoassay (TriCat™ RIA, RE29395, IBL Immuno Biological Lab., Hamburg, Germany) using ^125I as a tracer. The analytical sensitivity of the method was 30 pg/ml, its intra-assay CV was 9.5%, and its inter-assay CV was 16.7%. The cross reactivity between dopamine and norepinephrine was <0.013%

[2] = test system: Ishikawa cells; test: Ishikawa cell growth (MTT), estrogen agonism/antagonism; format: cell-based, human
Text: Treatment of postmenopausal syndromes with 17β-estradiol (E2) is associated with a higher risk of developing breast and/or endometrial cancer (Arch Intern Med. 166, 1027 (2006)). E2 stimulation of the proliferation of cancer cells is driven by estrogen receptor alpha (ERα) (Mol. Endocrinol. 13, 969 (1999)). Since BNN-50, BNN-93 and BNN-124 may form two hydrogen bonds with an O—O distance of 10.9-12.5 Å and thus may fit the ERα binding cavity (Chem. Biol. 11, 397 (2004)), it was imperative to examine the estrogen agonism/antagonism properties of these neurosteroids using human adenocarcinoma cells from breast (MCF-7 cells) and uterus (Ishikawa cells) as reporters. […] Differences between control and neurosteroid-treated cells were assessed using one-way ANOVA. […]
To determine neurosteroid effects on the growth of MCF-7 human mammary (from ATCC) and Ishikawa endometrial adenocarcinoma cells (from ECACC), the cells were cultured at 37° C. in Dulbecco's Minimal Essential Medium (DMEM) supplemented with 10% Fetal Bovine Serum (FBS, from Biochrom) in 5% CO2 and subcultured using a trypsin 0.25%-EDTA 0.02% solution. Neurosteroid effects on the growth of the cells were assessed using MTT [3-(4,5-dimethylthiazol-2-yl)-2,5-diphenyltetrazolium bromide] and standard methodology (Chem. Biol. 11, 397 (2004)). […]

[3] = test system: DHEA specific membrane receptors; test: [3H]DHEA competition binding on isolated PC12 cell membranes; parameters: species or system rat
Description: PC12 rat sympathoadrenal cells were cultured in 225 cm^2 flasks and, after washing twice with PBS, they were detached from the flasks by vigorous shaking. After a centrifugation at 1500 g, they were homogenized by sonication, in a 50 mM Tris-HCl buffer pH 7.4 at 4° C., containing freshly added protease inhibitors (1 mM PMSF and 1 μg/ml aprotinin). Unbroken cells were removed by centrifugation at 1500 g (10 min at 4° C.), and membranes were collected by centrifuging at 102,000 g for 1 hr at 4° C. Membranes were washed once with Tris-HCl, briefly acidified at 4° C. (for 3 min) with 50 mM glycine (pH 5.0), and re-suspended in the same buffer. Protein content was assayed by the method of Bradford, using reagents from Bio-Rad (Hercules, Calif.). Membranes (at a final concentration of 2 mg/ml) were incubated with 5 nM [^3H]DHEA, in the absence (to determine the total binding) or presence of unlabeled neurosteroids and their synthetic spiro analogs, at concentrations varying from 10^−12 to 10^−6 M and at a final volume of 100 μl, in Tris-HCl buffer (50 mM, pH 7.4). Following a […] incubation in a water bath, at 37° C., membranes were collected on GF/B filters, prewet in 0.5% PEI solution at 4° C. The filters were washed three times with ice-cold Tris-HCl, dried, supplemented with scintillation medium (Sigma Hellas, Athens, Greece) and counted in a β-scintillation counter (Perkin Elmer, Foster City, Calif.) with 60% efficiency for Tritium.

[4] = test system: Bcl-2 and Bcl-xL proteins; test: Western blot of anti-apoptotic Bcl-2 and Bcl-xL proteins in serum-deprived PC12 cells; format: cell-based, rat; conditions: 10 nM neurosteroid (FIG. 4)
Description: Neural-crest derived PC12 cells were cultured for 8 hours in the absence of serum, but supplemented with 10 nM of various neurosteroids. At the end of incubation cell lysates were subjected to electrophoresis through a 12% SDS-polyacrylamide gel. Then, proteins were transferred to nitrocellulose membranes, which were processed according to standard Western blotting procedures. To detect protein levels, membranes were incubated with the appropriate antibodies: Bcl-2, (Santa Cruz Biotechnology Inc., Santa Cruz, Calif., dilution 1:100) Bcl-xL (Cell Signalling Technology Inc., Beverly, Mass., dilution 1:100). A PC-based Image Analysis program was used to quantify the intensity of each band (Image Analysis, Inc., Ontario, Canada). To normalize for protein content, the blots were stripped and stained with anti-actin antibodies (Chemicon, Temecula, Calif., dilution 1:400); the concentration of each target protein was normalized versus actin.

C[C@]12CC[C@H](O)CC1=CCC1C2CC[C@@]2(C)C1CC[C@@]21CO1 (stereo partly drawn) [BNN-50, 17β-spiro-[5-androsten-17,2′-oxiran]-3β-ol]
dopamine levels in culture media, long-term ([1]; 3 to 48 hours (FIG. 6B)): increase of dopamine levels peaking at 24 h
stimulation of dopamine secretion, short-term ([1]; 5 to 30 min, effect within 10 min (FIG. 6A)): doubling their levels
E2 agonism (at 1 uM), Ishikawa cell growth [2]: non-significant
E2 antagonism (at 1 uM), Ishikawa cell growth ([2]; against E2 at 0.1 nM): non-significant
displacement of specific [3H]DHEA binding ([3]; at 1 μM, PC12 cell membranes): approximately 60%
pKd ([3]; isolated PC12 cell membranes, 5 nM [3H]DHEA (FIG. 5)): 10.80
levels of anti-apoptotic Bcl-2 and Bcl-xL proteins [4]: preventing this effect
